Data from ChEMBL document CHEMBL2157998, “Synthesis and biological evaluation of new phenothiazine derivatives bearing a pyrazole unit as protein farnesyltransferase inhibitors” (Bioorg Med Chem Lett, 2012).

The compounds below were run against Protein farnesyltransferase (Homo sapiens, UniProt P49354+P49356) (assay: Inhibition of recombinant human FTase using dansyl-GCVLS as substrate at 100 uM after 15 mins by fluorimetric analysis).
Type: protein-complex assay

Row | Compound | inhibition [%]
1 | Cc1cc(C)n(CC(=O)N2c3ccccc3Sc3ccccc32)n1 | 22.4
2 | Cc1c2c(nn1C(=O)CN1c3ccccc3Sc3ccccc31)CCCC2 | 0
3 | N#Cc1cnn(C(=O)CCN2c3ccccc3Sc3ccccc32)c1N | 4.7
4 | Cc1c2c(nn1C(=O)CCN1c3ccccc3Sc3ccccc31)CCCC2=O | 19.5
5 | Cc1c2c(nn1CC(=O)N1c3ccccc3Sc3ccccc31)CCCC2=O | 46.6
6 | Cc1c2c(nn1C(=O)CN1c3ccccc3Sc3ccccc31)CCCC2=O | 0
7 | CCOC(=O)C1=NN(C(=O)CCN2c3ccccc3Sc3ccccc32)C(O)(c2ccccc2)C1 (stereo unspecified) | 22.8

More lines, now with the values ahead:

Row | inhibition [%] | Compound
8 | 30.7 | CCOC(=O)C1=NN(C(=O)CN2c3ccccc3Sc3ccccc32)C(O)(c2ccccc2)C1 (stereo unspecified)
9 | 0 | Cc1cc(-c2ccccc2)n(CC(=O)N2c3ccccc3Sc3ccccc32)n1
10 | 0 | CCOC(=O)c1cc(-c2ccccc2)n(CC(=O)N2c3ccccc3Sc3ccccc32)n1
11 | 0 | CCOC(=O)c1cc(-c2ccccc2)nn1CC(=O)N1c2ccccc2Sc2ccccc21
